{"source": "patent US20230096380A1", "about": "“COMPOUNDS, COMPOSITIONS, METHODS FOR TREATING DISEASES AND NERVE DAMAGE, AND METHODS FOR PREPARING COMPOUNDS” (CHILDREN'S HOSPITAL MEDICAL CENTER, priority 2020, published 2023)", "key": {"[1]": {"system": "Rat oligodendrocyte progenitor cells (OPCs)", "test": "Rat OPC differentiation, MBP and Olig2 immunostaining after 48 h treatment (FIG. 18)", "type": "cell-based", "details": "for OPC differentiation (MBP, Olig2 immunostaining): at the indicated concentration", "protocol": "FIG. 18. Methods: This method generally follows that found in WANG et al. (2017) “miR-219 Cooperates with miR-338 in Myelination and Promotes Myelin Repair in the CNS” Dev Cell, Vol. 40, pp. 566-582. Rat oligodendrocyte progenitor cells (OPCs) were seeded on coverslip and treated with compounds, I-1, I-16, I-15, I-13, I-8, and I-17 at the indicated concentration. Cells were immunostained with a mature oligodendrocyte marker MBP and an oligodendrocyte lineage marker Olig2 after 48 h treatment."}, "[2]": {"system": "experimental autoimmune encephalomyelitis (EAE) demyelinating mouse model", "test": "EAE demyelinating mouse model induced by myelin peptide MOG35-55 (FIG. 7)", "type": "in vivo", "details": "EAE mice", "excerpt": "FIG. 7. This method generally follows that found in WANG et al. (2017) “miR-219 Cooperates with miR-338 in Myelination and Promotes Myelin Repair in the CNS” Dev Cell, Vol. 40, pp. 566-582."}, "EAE mice": {"system": "EAE mice", "test": "Visual evoked potential (VEP) analyses on EAE mice (FIG. 17)", "type": "in vivo", "details": "EAE mice at the peak of disease, versus Vehicle", "protocol": "FIG. 17. Visual evoked potential (VEP) analyses were carried out on EAE mice treated with Vehicle and compound I-1 at the peak of disease. This method generally follows that found in YOU et al. (2011) “Latency delay of visual evoked potential is a real measurement of demyelination in a rat model of optic neuritis” Invest Ophthalmol Vis Sci, Vol. 52, pp. 6911-6918."}, "[3]": {"system": "Primary oligodendrocyte progenitor cells (OPCs)", "test": "Rat primary OPC differentiation, immunostaining for MBP, OLIG2 and/or cleaved Caspase 3 (FIGS. 1-6)", "type": "cell-based", "excerpt": "FIGS. 1-6. Primary oligodendrocyte progenitor cells (OPCs) were obtained from newborn rat brains after preparation of mixed glial cultures. This method generally follows that found in ZHAO et al. (2018) “Dual Requirement of CHD8 for Chromatin Landscape Establishment and Histone Methyltransferase Recruitment to Promote CNS Myelination and Repair” Dev Cell, Vol. 45, pp. 753-768. Briefly, mixed glial cells were initially cultured in DMEM-F12 medium supplied with 15% FBS, then switched to B104 conditioned medium for 2 days before isolating OPCs by mechanical detachment in an orbital shaker. Isolated rat OPCs were grown in Sato growth medium supplemented with mitogens 10 ng/ml PDGF-AA and 10 ng/ml bFGF. OPCs were then treated with indicated compounds and immunostained with oligodendrocyte myelination markers MBP and OLIG2, and/or a cell death marker cleaved Caspase 3. T3 ((2S)-2-amino-3-[4-(4-hydroxy-3-iodophenoxy)-3,5-diiodophenyl]propanoic acid; CAS 6893-02-3) was used as a positive control; the T3 concentration used was 15 nm."}, "p300": {"target": "T1, p300 (Rattus norvegicus, UniProt A0ABK0LGW0)", "T1 construct": "Isolated rat OPCs were grown in Sato growth medium; endogenous in cells; host or cells: primary rat oligodendrocyte progenitor cells (OPCs) from newborn rat brain", "T1 sequence (A0ABK0LGW0 1-2423)": "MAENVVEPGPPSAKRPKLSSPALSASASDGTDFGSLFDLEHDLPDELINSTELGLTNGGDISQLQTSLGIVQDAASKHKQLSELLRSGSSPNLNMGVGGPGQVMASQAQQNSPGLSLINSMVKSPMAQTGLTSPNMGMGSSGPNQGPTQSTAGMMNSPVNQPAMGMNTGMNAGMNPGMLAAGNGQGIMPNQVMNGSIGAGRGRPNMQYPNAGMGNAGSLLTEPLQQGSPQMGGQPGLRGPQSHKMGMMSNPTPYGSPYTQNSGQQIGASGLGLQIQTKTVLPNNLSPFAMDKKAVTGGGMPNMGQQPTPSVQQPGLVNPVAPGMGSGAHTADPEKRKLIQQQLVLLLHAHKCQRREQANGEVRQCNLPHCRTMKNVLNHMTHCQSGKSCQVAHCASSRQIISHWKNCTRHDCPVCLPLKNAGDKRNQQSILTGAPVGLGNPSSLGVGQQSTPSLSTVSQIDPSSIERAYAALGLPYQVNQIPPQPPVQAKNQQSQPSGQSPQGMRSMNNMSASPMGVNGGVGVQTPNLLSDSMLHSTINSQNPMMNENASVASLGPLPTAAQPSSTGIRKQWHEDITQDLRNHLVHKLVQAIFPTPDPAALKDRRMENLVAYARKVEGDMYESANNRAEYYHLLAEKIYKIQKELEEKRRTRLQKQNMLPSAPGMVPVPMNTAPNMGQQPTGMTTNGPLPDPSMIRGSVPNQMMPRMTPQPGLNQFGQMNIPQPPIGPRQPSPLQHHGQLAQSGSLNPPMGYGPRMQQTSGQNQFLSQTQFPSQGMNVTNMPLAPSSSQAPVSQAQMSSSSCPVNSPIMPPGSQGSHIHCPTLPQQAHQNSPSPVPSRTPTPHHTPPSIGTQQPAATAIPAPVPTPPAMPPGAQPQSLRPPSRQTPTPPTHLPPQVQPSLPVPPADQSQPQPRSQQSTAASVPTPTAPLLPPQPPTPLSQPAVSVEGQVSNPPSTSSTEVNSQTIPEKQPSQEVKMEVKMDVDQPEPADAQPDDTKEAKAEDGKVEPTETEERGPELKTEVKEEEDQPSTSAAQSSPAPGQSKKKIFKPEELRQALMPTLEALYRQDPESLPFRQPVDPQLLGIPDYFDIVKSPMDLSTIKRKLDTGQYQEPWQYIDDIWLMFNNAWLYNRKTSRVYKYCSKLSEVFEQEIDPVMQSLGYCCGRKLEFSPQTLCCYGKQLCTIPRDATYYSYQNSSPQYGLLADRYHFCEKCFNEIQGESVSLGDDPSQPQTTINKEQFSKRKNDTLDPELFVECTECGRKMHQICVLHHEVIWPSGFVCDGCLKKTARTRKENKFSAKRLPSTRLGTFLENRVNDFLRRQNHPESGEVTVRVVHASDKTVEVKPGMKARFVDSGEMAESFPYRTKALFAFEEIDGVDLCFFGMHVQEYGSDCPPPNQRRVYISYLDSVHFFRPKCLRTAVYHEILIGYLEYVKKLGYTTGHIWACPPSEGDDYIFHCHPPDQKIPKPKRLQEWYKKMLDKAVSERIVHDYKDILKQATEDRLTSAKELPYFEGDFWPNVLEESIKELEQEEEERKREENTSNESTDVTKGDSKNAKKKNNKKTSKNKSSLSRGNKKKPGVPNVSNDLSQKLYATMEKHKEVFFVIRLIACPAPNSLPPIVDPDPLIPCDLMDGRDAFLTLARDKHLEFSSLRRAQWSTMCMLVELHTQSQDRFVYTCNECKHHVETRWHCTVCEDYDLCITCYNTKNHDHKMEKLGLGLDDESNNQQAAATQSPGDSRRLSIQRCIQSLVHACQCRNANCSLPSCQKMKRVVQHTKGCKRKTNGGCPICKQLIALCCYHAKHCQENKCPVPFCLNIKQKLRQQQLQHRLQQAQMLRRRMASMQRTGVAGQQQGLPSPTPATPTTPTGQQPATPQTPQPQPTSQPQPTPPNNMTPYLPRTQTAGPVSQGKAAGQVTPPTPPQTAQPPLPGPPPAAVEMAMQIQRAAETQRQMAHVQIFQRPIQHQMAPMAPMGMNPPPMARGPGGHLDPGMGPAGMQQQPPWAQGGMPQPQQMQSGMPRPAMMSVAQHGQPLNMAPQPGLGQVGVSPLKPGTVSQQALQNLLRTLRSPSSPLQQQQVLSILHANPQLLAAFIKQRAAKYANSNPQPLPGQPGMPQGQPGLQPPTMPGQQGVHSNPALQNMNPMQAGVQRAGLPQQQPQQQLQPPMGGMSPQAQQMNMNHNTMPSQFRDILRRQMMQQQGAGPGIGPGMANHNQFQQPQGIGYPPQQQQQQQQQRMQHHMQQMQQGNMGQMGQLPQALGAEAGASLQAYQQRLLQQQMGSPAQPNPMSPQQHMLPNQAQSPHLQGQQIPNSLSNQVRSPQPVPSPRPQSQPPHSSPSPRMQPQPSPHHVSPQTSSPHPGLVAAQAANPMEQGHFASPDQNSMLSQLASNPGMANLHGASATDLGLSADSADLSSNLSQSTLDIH", "test": "p300 activity inhibition (FIG. 2)"}}, "note": "“Also recorded” adds a separate entry of the source."}
{"smiles": "CC(C(=O)Nc1cnc(C(=O)Nc2ccccc2N)cn1)c1ccccc1", "note": "(centres unmarked) [Compound I-16]", "values": [{"measurement": "OPC differentiation (MBP, Olig2 immunostaining)", "setting": "[1]", "result": "promote OPC differentiation"}]}
{"smiles": "Nc1ccccc1NC(=O)c1cnc(NC(=O)C(N)c2ccccc2)cn1", "note": "(centres unmarked) [Compound I-17]", "values": [{"measurement": "activity in promoting OPC into mature oligodendrocytes relative to compound I-1", "setting": "[1]", "result": "comparable activity with compound I-1"}, {"measurement": "OPC differentiation (MBP, Olig2 immunostaining)", "setting": "[1]", "result": "promote OPC differentiation"}]}
{"smiles": "Nc1ccccc1NC(=O)c1cnc(NC(=O)C(c2ccccc2)c2ccccc2)cn1", "note": "[Compound I-13]", "values": [{"measurement": "OPC differentiation (MBP, Olig2 immunostaining)", "setting": "[1]", "result": "promote OPC differentiation"}]}
{"smiles": "Nc1ccccc1NC(=O)c1cnc(NCc2ccccc2)cn1", "note": "[Compound I-1]", "values": [{"measurement": "functional regeneration", "setting": "[2]", "result": "promotes functional regeneration"}, {"measurement": "EAE disease severity / motor function (clinical scores)", "setting": "[2]; MOG35-55 induced", "result": "improved motor function reflected in clinical scores; also recorded: reduced EAE disease severity"}, {"measurement": "VEP N1 signals", "setting": "EAE mice", "result": "showed greater and faster conducting VEP N1 signals"}, {"measurement": "OPC differentiation (MBP, Olig2 immunostaining)", "setting": "[1]", "result": "promote OPC differentiation"}, {"measurement": "myelin MBP+ cell formation 3 days after treatment", "setting": "[3]; 3 days after treatment, FIG. 6", "result": "enhances myelin MBP+ cell formation"}, {"measurement": "myelin MBP+ cell formation", "setting": "[3]; FIG. 5", "result": "enhances myelin MBP+ cell formation"}, {"measurement": "oligodendrocyte differentiation and myelination in vitro", "setting": "[3]; rat OPCs, MBP/OLIG2 immunostaining, FIGS. 1-6", "result": "promoted oligodendrocyte differentiation and myelination in vitro"}, {"measurement": "OPC differentiation", "setting": "[3]; rat primary OPCs, FIGS. 1, 3, 4", "result": "promotes oligodendrocyte progenitor cell (OPC) differentiation"}, {"measurement": "myelin formation in presence of A485", "setting": "[3]; with p300 inhibitor A485, FIG. 2", "result": "appears to overcome A485 inhibition to enhance myelin formation"}]}
{"smiles": "CNC(=O)Nc1ccc2c(c1)CC[C@@]21OC(=O)N(CC(=O)N(Cc2ccc(F)cc2)[C@@H](C)C(F)(F)F)C1=O", "note": "[Compound A485]", "values": [{"measurement": "p300 activity", "setting": "p300", "result": "inhibits p300 activity"}]}
{"smiles": "Nc1ccccc1NC(=O)c1cnc(NC(c2ccccc2)c2ccccc2)cn1", "note": "[Compound I-8]", "values": [{"measurement": "activity in promoting OPC into mature oligodendrocytes relative to compound I-1", "setting": "[1]", "result": "comparable activity with compound I-1"}, {"measurement": "OPC differentiation (MBP, Olig2 immunostaining)", "setting": "[1]", "result": "promote OPC differentiation"}]}
{"smiles": "Nc1ccccc1NC(=O)c1cnc(NC2=N[C@H](c3ccccc3)[C@H](c3ccccc3)O2)cn1", "note": "[Compound I-15]", "values": [{"measurement": "OPC differentiation (MBP, Olig2 immunostaining)", "setting": "[1]", "result": "promote OPC differentiation"}]}
